The text below walks through data of patent publication US12661338B2, “Heterocyclic compounds as modulators of beta-catenin / TCF4 interaction” (AGENCY FOR SCIENCE, TECHNOLOGY AND RESEARCH, priority 2019, dated 2026).

Structures are written as SMILES. Where two headings read alike, the source gives them in different places. Where only a bound is given, the exact number is not on record here.

The IC50 is the concentration at which inhibition is half-maximal. One may read the EC50 as the concentration giving half of the maximal effect.

What all share (format): cell-based
The subject of one assay is STF3A cells. Briefly: Viability (toxicity) of STF3A reporter cells, CCK-8. Conditions: Table 3; STF3A reporter cell line. The protocol:
(§1) The Wnt STF3A reporter cells were seeded as 20,000 cells in 100 μL culture medium per well in 96-well plates (Corning cat. #3903, Falcon cat. #353072). The next day, 5-fold dilutions of the compounds in DMSO were added to the cells at a final concentration of 1% DMSO. After 24 hr incubation, the viability of the cells was determined with cell counting kit-8 (CCK-8, Dojindo cat. #CK04) cell viability reagent according to the manufacturer's protocol while the TOPFlash reporter activity was determined with Steady-Glo luciferase reagent.
(§2) The average signal from DMSO treated wells was calculated for each plate, and the signal from each treatment well was normalized against the average DMSO signal from the respective plate. The normalized values were plotted against the concentrations tested using GraphPad Prism 5, and the EC50 values were determined through either three- or four-parameter nonlinear regression.

In assay [1] the test system is Wnt signalling (TOPFlash reporter, STF3A cells). Kind of assay: Wnt STF3A TOPFlash reporter dose response (constitutive Wnt3A). The protocol:
(§3) Wnt STF reporter cells (HEK 293 cells stably transfected with TOPFlash reporter) and STF3A reporter cells (STF cells with constitutive secretion of Wnt3A) were kind gifts from David Virshup (Duke-NUS Graduate Medical School, Singapore). HCT116, DLD-1, and SW480 cell lines were obtained from ATCC. The Hippo pathway TEAD reporter (cat. #60618) and Myc signalling pathway reporter (cat. #60520) cells lines were purchased from BPS Bioscience, Inc.
as §1, §2

A further assay has as its system STF cells. Kind of assay: Viability (toxicity) of STF reporter cells, CCK-8. Particulars: Table 3; STF reporter cell line. The protocol: as §1, with “STF” for “STF3A”, “DMSO. The cells were also stimulated with 500 ng/mL recombinant human Wnt3A (RnD systems, cat. #5036-WN-010).” for “DMSO.”
as §2

Assay [2] concerns Wnt signalling (TOPFlash reporter, STF cells). Briefly: Wnt STF TOPFlash reporter dose response (Wnt3A-stimulated). The protocol: as §3
as §1, with “STF” for “STF3A”, “DMSO. The cells were also stimulated with 500 ng/mL recombinant human Wnt3A (RnD systems, cat. #5036-WN-010).” for “DMSO.”
as §2

The subject of assay [3] is Wnt target genes in HCT116 CRC cells. Briefly: Expression of beta-catenin (CTNNB1) and Wnt target genes in HCT116 CRC cells. The protocol: The effects of the GB1874 analogues were tested on the expression of Wnt target genes in HCT116 CRC cells.
Another assay concerns CRC2255. Kind of assay: Viability of primary patient-derived colorectal cancer cell line.
The subject of the next assay is CRC948. The assay is described as above.
In another assay the test system is CRC2440. The assay is described as above.
For another assay, the system named is CRC2367. The assay is described as above.
A further assay concerns CRC1775. The description is as above.
A further assay relates to CRC1850. The description is as above. Particulars: CRC1850, Liver Met.
For a further assay, the system named is CRC1837. The description is as above. Particulars: CRC1837, Liver Met.
In another assay the test system is CRC1707. The description is as above.
Another assay deals with CRC1177. The description is as above.
The next assay deals with CRC1258. The assay is described as above. Conditions: CRC1258, Liver Met.
The test system of another assay is CRC1846. Described as above.
The subject of assay [4] is HCT116 cells. Briefly: Proliferation assay (CellTiter-Glo). Particulars: 10 μM daily. The protocol: HCT 116 cells were seeded as 3,000 cells in 100 μL growth medium per well in 96-well plates (Corning cat. #3903) and allowed to attached overnight. Cells were then treated continuously with compounds at a final concentration of 10 μM, 0.1% DMSO, for 4 days with daily medium change. Cell proliferation each day was determined using CellTiter-Glo luminescent cell viability assay (Promega cat. #G7573) according to the manufacturer's protocol.

In the next assay the test system is CRC1671. Kind of assay: Viability of primary patient-derived colorectal cancer cell line.
The test system of another assay is CRC1489. The assay is described as above.
Another assay deals with CRC2413. The description is as above.
The subject of a further assay is CRC2423. The description is as above.
For another assay, the system named is CRC1463. Described as above.
A further assay deals with CRC2001. The description is as above.
The subject of another assay is CRC1414. The assay is described as above.
Another assay deals with DLD-1 cells. Kind of assay: Dose response viability of CRC cells (CellTiter-Glo). Particulars: Homo sapiens, 24 hr. As to the method: (§4) HCT116, DLD-1, and SW480 cells were seeded as 5,000 cells in 100 μL growth medium per well in 96-well plates (Corning cat. #3903). The next day, 5-fold dilutions of the compounds in DMSO were added to the cells at a final concentration of 1% DMSO. After 24 hr incubation, the viability of the cells was determined with CellTiter-Glo luminescent cell viability reagent (Promega cat. #G7573) according to the manufacturer's protocol.
as §2

The next assay concerns SW480 cells. Described as above. Particulars: Homo sapiens, 24 hr. As to the method:
as §4, §2

For assay [5], the system named is HCT116 cells. The description is as above. Particulars: Homo sapiens, HCT-116, 24 hr. As to the method: as §4, §2
Assay [6] deals with Myc reporter (Luc)-HCT116 cells. Briefly: Myc signalling reporter dose response. Particulars: Homo sapiens, HCT-116, 24 hr. The protocol:
The Myc reporter (Luc)-HCT116 cells were seeded as 25,000 cells in 100 μL assay medium per well in 96-well plates (Corning cat. #3903, Falcon cat. #353072). The assay medium consists of the growth medium without G-418. The next day, 4-fold dilutions of the compounds in DMSO were added to the cells at a final concentration of 1% DMSO. After 24 hr incubation, the viability of the cells was determined with PrestoBlue cell viability reagent while the luciferase reporter activity was determined with Steady-Glo luciferase reagent.
as §2

For assay [7], the system named is Hippo pathway TEAD reporter cells. Briefly: Hippo signalling TEAD reporter dose response. Particulars: 24 hr, activation of the Hippo pathway (decrease of reporter signal). The protocol: The Hippo TEAD reporter cells were seeded as 100,000 cells in 100 μL assay medium per well in 96-well plates (Corning cat. #3903, Falcon cat. #353072). The assay medium consists of the growth medium without G-418. The next day, 5-fold dilutions of the compounds in DMSO were added to the cells at a final concentration of 1% DMSO. After 24 hr incubation, the viability of the cells was determined with CCK-8 cell viability reagent while the luciferase reporter activity was determined with Steady-Glo luciferase reagent.
as §2

The mark [8] stands for this setting: Table 3, STF3A reporter cell line, read-out: STF3A Inhibition IC50.
[9] abbreviates: Table 3, STF reporter cell line, read-out: STF Inhibition IC50.

For `CCOc1ccc(C(=O)CSc2nnc(COc3ccccc3)n2Cc2ccccc2)cc1` [GB1874D], the IC50 in the assay with STF3A cells was 25 µM; in assay [1] (setting [8]), 21 µM; in the assay with STF cells it was more than 100 µM; in [2] (setting [9]), 21 µM.

With `CC1CCCC(C)N1C(=O)CSc1nnc(COc2ccccc2)n1Cc1ccccc1` (stereo not drawn) [GB1874C], the IC50 in the assay with STF3A cells turned out to be 78 µM; in [1] (setting [8]) it was 46 µM; in the assay with STF cells it was 76 µM; in [2] (setting [9]), 7.6 µM. Also, the “beta-catenin (CTNNB1) gene expression” value in assay [3] was “lesser effect”. In [3], the “expression of Wnt target genes AXIN2, BIRC5, BMP4, CCND1” value (from here on “expression of Wnt target genes AXIN2”) was “potently inhibit Wnt target genes”.

Consider `Cc1ccccc1OCc1nnc(SCCSc2nnc(COc3ccccc3C)n2Cc2ccccc2)n1Cc1ccccc1` [GB1874A], for which the IC50 is more than 100 µM with STF3A cells, 1.2 µM in assay [1] (setting [8]), more than 100 µM in the assay on STF cells and 28 µM in assay [2] (setting [9]).

Consider `CCc1ccc(OCc2nnc(SC(C)C(=O)C3C4CC5CC(C4)CC3C5)n2Cc2ccccc2)cc1` (stereo not drawn) [GB1874G], for which the IC50 was more than 100 µM in the assay with STF3A cells; 6.7 µM in assay [1] (setting [8]); more than 100 µM in the assay with STF cells; 3.9 µM in [2] (setting [9]); 3.9 µM in assay [2] (unit M, read-out: STF IC50). Besides, in [3], the “beta-catenin (CTNNB1) gene expression” value was “lesser effect”. Moreover, the “expression of Wnt target genes AXIN2” value in [3] is on record as “potently inhibit Wnt target genes”.

Turning to `Oc1nc(-c2ccc(C(F)(F)F)cc2)nc2c1CSCC2` [XAV939, reference compound], the EC50 is more than 250 µM with CRC2255; more than 250 µM in the assay with CRC948; 75 µM with CRC2440; more than 250 µM with CRC2367; more than 250 µM with CRC1775; 208 µM in the assay with CRC1850. In addition, the EC50 in the assay on CRC1837 is more than 250 µM; in the assay with CRC1707 it was 135 µM; in the assay on CRC1177, 250 µM; in the assay with CRC1258 it was 70 µM; in the assay with CRC1846, 239 µM; with CRC1671, more than 250 µM. Moreover, the 50% effective concentration (EC50) is 105 µM in the assay with CRC1489; 200 µM in the assay with CRC2413; 250 µM in the assay with CRC2423; 250 µM in the assay with CRC1463; more than 250 µM in the assay with CRC2001; more than 250 µM in the assay with CRC1414. Besides, in the assay with HCT116 cells [4], the “growth of HCT116 cells” value was “less effective at inhibiting the growth of HCT116 cells”.

Take `CCOC(=O)C(C)(C)Sc1nnc(COc2ccccc2)n1Cc1ccccc1` [GB1874E]: the IC50 with STF3A cells is 100 µM; in assay [1] (setting [8]), 16 µM; with STF cells it was 71 µM; in [2] (setting [9]) it was 12 µM. The “beta-catenin (CTNNB1) gene expression” value in [3] is given as “lesser effect”. In assay [3], the “expression of Wnt target genes AXIN2” value is recorded as “potently inhibit Wnt target genes”.

Consider `O=C(CSc1nnc(Cc2ccccc2)n1Cc1ccco1)NC1CCCC1` [GB1874B], for which the IC50 is more than 100 µM with STF3A cells, more than 100 µM in [1] (setting [8]), more than 100 µM with STF cells and 48 µM in assay [2] (setting [9]).

As to `CCc1ccc(OCc2nnc(SC3CCCCC3=O)n2C(C)c2ccccc2)cc1` (stereo not drawn) [GB1874H], the IC50 in the assay on STF3A cells amounted to 46 µM; in assay [1] (setting [8]), 11 µM; in the assay on STF cells, 49 µM; in [2] (setting [9]), 5 µM. In addition, the “beta-catenin (CTNNB1) gene expression” value in assay [3] was “lesser effect”. The “expression of Wnt target genes AXIN2” value in assay [3] is on record as “potently inhibit Wnt target genes”.

Consider `Cc1ccc2nc(NC(=O)CSc3nc4c(c(=O)n3-c3ccccc3)SCC4)sc2c1` [IWP-2], for which the “growth of HCT116 cells” value with HCT116 cells [4] is reported as “less effective at inhibiting the growth of HCT116 cells”.

Turning to `CCc1ccc(-c2nc(CSCC(=O)NCCc3ccccc3)c(C)o2)cc1` [iCRT3, reference compound], the IC50 amounted to 74 µM in the assay on STF3A cells; 64 µM in assay [1] (Table 1, STF3A reporter cells, 24 hr, read-out: IC50 Wnt (STF3A)); 42 µM in assay [1] (setting [8]); 50 µM in assay [6]; 88 µM with STF cells; 27 µM in [2] (Table 1, STF reporter cells, 500 ng/mL Wnt3A, 24 hr, read-out: IC50 Wnt (STF)). In addition, the IC50 in assay [2] (setting [9]) stood at 11 µM; in assay [7] (read-out: IC50 Hippo (activation)), 1.6 µM. The “beta-catenin (CTNNB1) gene expression” value in assay [3] was “lesser effect”. The “expression of Wnt target genes AXIN2” value in [3] is reported as “potently inhibit Wnt target genes”. Moreover, the EC50 stood at 48 µM in the assay with DLD-1 cells, 64 µM in the assay with SW480 cells and 39 µM in the assay with HCT116 cells [5]. The “IC50 Hippo (activation)” value in [7] is “activated”.

In the case of `Cc1ccc(OCc2nnc(SCC(=O)c3ccc(-c4ccccc4)cc3)n2Cc2ccco2)cc1` [GB1874F], the IC50 is more than 100 µM in the assay on STF3A cells; 10 µM in assay [1] (setting [8]); 100 µM with STF cells; 5.4 µM in assay [2] (setting [9]); 5.4 µM in assay [2] (unit M, read-out: STF IC50). Besides, the “beta-catenin (CTNNB1) gene expression” value in assay [3] is recorded as “lesser effect”. For the same compound, the “expression of Wnt target genes AXIN2” value in assay [3] was “potently inhibit Wnt target genes”.
